# According to patent publication US11744802B2, “Therapeutic compositions for treatment of human immunodeficiency virus” (Gilead Sciences, Inc., priority 2015, dated 2023):
# Like-named read-outs stand apart in the source and are kept apart here.
# Legend:
# [1] = Relative bioavailability and food-effect crossover study, cohort 1 (bilayer tablet F2 vs F1 co-administered with F3); conditions: for AUC(0-inf): AUCinf; for AUC(0-t): AUClast
# Procedure: Studies were carried out to assess the pharmacokinetic profiles of the formulations F1, F2, and F3 of Examples 1, 2, and 2A. A randomized, open-label, multiple-period, fixed-sequence, crossover study was performed to evaluate the relative bioavailability of bilayer tablet formulation F2 compared with that of single agent tablet formulation F1 co-administered simultaneously with a fixed-dose combination tablet containing emtricitabine and tenofovir alafenamide (tablet formulation F3). The bioavailability was evaluated in healthy subjects.
# The following plasma pharmacokinetic parameters were calculated: Cmax, AUClast, and AUCinf.
# Pharmacokinetics: Plasma concentrations and PK parameters were listed and summarized by analyte and treatment group using descriptive statistics. In addition, a parametric analysis of variance using a mixed-effects model appropriate for a crossover design was fitted to the natural logarithmic transformation of the PK parameters (AUCinf, AUClast, and Cmax).
# [2] = Food effect on single dose Compound of Formula I 100 mg single agent tablet (8 subjects); assay type: in vivo, human; conditions: for AUC(0-inf) / AUC(0-t) / Cmax: human, plasma, oral, 100 mg, mean, Compound of Formula I 100 mg single agent tablet, n = 8
# Procedure: In this study, a single dose of the compound of Formula I was administered in two periods with fixed sequence under fasted and fed conditions respectively. A washout of at least five half-lives was required between fasted and fed sequences.
# Subjects continued to fast until 4 hours post dose or until collection of the 4-hour postdose blood sample.
# The 90% CI for the geometric least square mean (GLSM) ratios for fast versus fed was constructed. The statistical comparison of the pharmacokinetic parameters of the compound of Formula 1 following single dose administration of this tablet formulation in fed and fasted states is presented in the table below.
# [3] = Pharmacokinetic study cohort 2 (bilayer tablet F7 vs F1 + F3; food effect on F7); conditions: for AUCinf, Mean (% CV) / Cmax, Mean (% CV) / AUClast, Mean (% CV): plasma;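 as to all read-outs here: plasma PK parameters per analyte summarized descriptively, with GLSM ratios derived from mixed-effects ANOVA on ln-transformed values (treatment as fixed effect, subject as random effect)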
# Procedure: (§1) The pharmacokinetic study of Example 3 was continued with a second treatment group (cohort) to assess the pharmacokinetic profile of formulation F7 of Example 7 compared with that of formulation F2.
# (§2) The following plasma pharmacokinetic parameters were calculated: AUClast, AUCinf, % AUCexp, Cmax, Clast, Tmax, Tlast, CL/F, Vz/F, and t1/2.
# (§3) Pharmacokinetics: Individual subject concentration data and individual subject PK parameters for each analyte (compound of Formula 1, FTC, and TAF) were listed and summarized using descriptive statistics by treatment group (cohort) and treatment. Summary statistics were determined for both individual subject concentration data by time point, cohort, and treatment and individual subject PK parameters by cohort and treatment. Also, the geometric mean, 95% confidence interval (CI), and the mean, and standard deviation (SD) of the natural log-transformed values were presented for individual subject PK parameter data. The sample size for each time point was based on the number of subjects with nonmissing concentration data at that time point. The number of subjects with concentration below the level of quantitation (BLQ) was presented for each time point.
# (§4) Statistical comparisons of the natural log-transformed PK parameters for each analyte and treatment comparison of interest were performed. The statistical modelling was based on the PK Analysis set for the analyte under evaluation. For each analyte, all subjects with available data for the PK parameter under evaluation were included in the modelling. The statistical comparisons using Treatment A as a reference only used data from this cohort, not from the earlier cohort of Example 3 (i.e., Treatment A was not pooled).
# (§5) For each analyte and each PK parameter, a parametric (normal theory) mixed-effects ANOVA model was fitted to the natural log-transformed values of the PK parameter under evaluation. The statistical model included treatment as a fixed effect and subject as a random effect.
# [4] = Physicochemical properties of the active ingredients (pKa, pH-dependent solubility and stability, BCS class); conditions: for pH of maximum solubility: pH-dependent solubility
# [5] = in vivo
# Procedure: as §1, §2, §3, §4, §5
# [6] = human, plasma, oral, mean, F2 Compound of Formula I/F/TAF (75/200/25 mg), high-fat meal, Test, N = 28
# [7] = human, plasma, oral, plasma, mean, F1 Compound of Formula I (75 mg) + F3 F/TAF (200/25 mg) co-administered, fasted, Reference, N = 28, cohort 1
# [8] = 100 mg single dose, high-calorie/high-fat breakfast
# [9] = F7 (50/200/25 mg), high fat meal, N = 27
# [10] = F7 (50/200/25 mg), moderate fat meal, N = 27
# [11] = Formulation F1 + F3 (75 mg + F/TAF 200/25 mg), fasted, Reference, N = 28, cohort 2
# [12] = F2 (75/200/25 mg) high-fat meal / fasted
# [13] = Test F2 (75/200/25 mg) / Reference F1 + F3, fasted
# [14] = human, in vivo, plasma, mean, F1 Compound of Formula I (75 mg) + F3 F/TAF (200/25 mg) co-administered, fasted, Reference, N = 28, cohort 1
# [15] = human, in vivo, plasma, mean, F2 Compound of Formula I/F/TAF (75/200/25 mg), high-fat meal, Test, N = 28
# [16] = human, in vivo, plasma, mean, bilayer tablet F2 Compound of Formula I/F/TAF (75/200/25 mg), single dose, fasted, N = 28
# [17] = Test F7 (50/200/25 mg) / Reference F1 + F3, fasted
compound,measurement,setting,value
"O=C(NCc1c(F)cc(F)cc1F)c1cn2c(c(O)c1=O)C(=O)N1[C@H]3CC[C@H](C3)O[C@@H]1C2 [Compound of Formula I, (2R,5S,13aR)-8-hydroxy-7,9-dioxo-N-(2,4,6-trifluorobenzyl)-2,3,4,5,7,9,13,13a-octahydro-2,5-methanopyrido[1′,2′:4,5]pyrazino[2,1-b][1,3]oxazepine-10-carboxamide]",AUCinf higher after F2 than after F1 with F3,[1]; fasted,27%
same,Cmax higher after F2 than after F1 with F3,[1]; fasted,31%
same,total exposure higher in F2 than in F1 co-dosed with F3,[1]; fasted,approximately 30%
same,AUC(0-inf),[1]; [6],226 µg·h/mL
same,AUC(0-inf),[1]; [7],123 µg·h/mL
same,AUC(0-t),[1]; [6],217 µg·h/mL
same,AUC(0-t),"[1]; human, plasma, oral, mean, bilayer tablet F2 Compound of Formula I/F/TAF (75/200/25 mg), single dose, fasted, N = 28",152 µg·h/mL
same,AUC(0-t),[1]; [7],120 µg·h/mL
same,Cmax,[1]; [7],5590 ng/mL
same,AUCinf,"[1]; plasma, mean, bilayer tablet F2 Compound of Formula I/F/TAF (75/200/25 mg), single dose, fasted, N = 28","156,637.5 h · ng/mL"
same,AUCinf higher with high-fat meal than fasted,[1]; tablet formulation F2,46%
same,Cmax higher with high-fat meal than fasted,[1]; tablet formulation F2,27%
same,changes in clearance and t1/2 following administration with food,[2]; 100 mg single dose,no apparent changes
same,increase of GLSM value of AUCinf with food,[2]; [8],84%
same,increase of GLSM value of Cmax with food,[2]; [8],101%
same,AUC(0-inf),[2]; Fasted,118 µg·h/mL
same,AUC(0-t),[2]; Fasted,116 µg·h/mL
same,Cmax,[2]; Fasted,5880 ng/mL
same,AUC(0-inf),[2]; Fed (high-fat breakfast),214 µg·h/mL
same,AUC(0-t),[2]; Fed (high-fat breakfast),209 µg·h/mL
same,Cmax,[2]; Fed (high-fat breakfast),11300 ng/mL
same,exposure in Formulation F7 compared with Formulation F2,[3]; 50 mg vs 75 mg dose,proportionally lower
same,"AUCinf, Mean (% CV)",[3]; [9],"140,032.4 (21.8) hr · ng/mL"
same,"Cmax, Mean (% CV)",[3]; [9],5936.3 (18.3) ng/mL
same,"AUCinf, Mean (% CV)",[3]; [10],"140,197.7 (23.6) hr · ng/mL"
same,"Cmax, Mean (% CV)",[3]; [10],6279.6 (18.3) ng/mL
same,"AUCinf, Mean (% CV)",[3]; [11],"146,931.6 (31.1) hr · ng/mL"
same,"Cmax, Mean (% CV)",[3]; [11],6791.1 (26.4) ng/mL
same,AUCinf higher with high-fat meal than fasted,[3]; tablet formulation F7,24%
same,AUCinf higher with moderate fat meal than fasted,[3]; tablet formulation F7,24%
same,Cmax higher with high-fat meal than fasted,[3]; tablet formulation F7,13%
same,Cmax higher with moderate fat meal than fasted,[3]; tablet formulation F7,20%
same,BCS class,[4],BCS Class 2
same,pH of maximum chemical stability,[4],4
same,pKa,[4],8.6
same,solubility (BCS classification),[4],low solubility
same,pH of maximum solubility,[4],10.5
"Nc1nc(=O)n([C@@H]2CS[C@H](CO)O2)cc1F [Emtricitabine, 4-amino-5-fluoro-1-[(2R,5S)-2-(hydroxymethyl)-1,3-oxathiolan-5-yl]-1,2-dihydropyrimidin-2-one]",geometric mean ratio of AUCinf (food effect),"[1]; human, in vivo",1.00
same,geometric mean ratio of Cmax (food effect),"[1]; human, in vivo",0.83
same,exposure following F2 compared with F1 with the F/TAF FDC (F3),[1]; in vivo,similar
same,exposure of Formulation F7 compared with coadministered reference tablets,[5],similar
same,BCS class,[4],BCS Class 1
same,pKa,[4],2.65
same,solubility (BCS classification),[4],high solubility
CC(C)OC(=O)[C@H](C)N[P@](=O)(CO[C@H](C)Cn1cnc2c(N)ncnc21)Oc1ccccc1 [Tenofovir alafenamide],% GLSM Ratio of AUCinf,[1]; [12],158.20%
same,% GLSM Ratio of AUClast,[1]; [12],156.81%
same,% GLSM Ratio of Cmax,[1]; [12],83.22%
same,% GLSM Ratio of AUCinf,[1]; [13],91.56%
same,% GLSM Ratio of AUClast,[1]; [13],91.62%
same,% GLSM Ratio of Cmax,[1]; [13],95.47%
same,geometric mean ratio of AUCinf (food effect),[1]; bilayer tablet formulation F2,1.58
same,geometric mean ratio of Cmax (food effect),[1]; bilayer tablet formulation F2,0.83
same,exposure following F2 compared with F1 with the F/TAF FDC (F3),[1]; fasted,similar
same,AUC(0-inf),[1]; [14],0.225 µg·h/mL
same,AUC(0-inf),[1]; [15],0.32 µg·h/mL
same,AUC(0-inf),[1]; [16],0.207 µg·h/mL
same,AUC(0-t),[1]; [14],0.224 µg·h/mL
same,AUC(0-t),[1]; [15],0.315 µg·h/mL
same,AUC(0-t),[1]; [16],0.206 µg·h/mL
same,Cmax,[1]; [14],277 ng/mL
same,Cmax,[1]; [15],212 ng/mL
same,Cmax,[1]; [16],253 ng/mL
same,geometric mean ratio of Cmax (food effect),[1]; tablet formulation F1 (codosed with F3),0.85
same,geometric mean ratio of AUCinf (food effect),[1]; tablet formulation F1 codosed with tablet formulation F3,1.75
same,% GLSM Ratio (90% CI) of AUCinf,[3]; F7 high fat meal / fasted,"166.55 (146.54, 189.29) %"
same,% GLSM Ratio (90% CI) of AUClast,[3]; F7 high fat meal / fasted,"162.62 (143.10, 184.80) %"
same,% GLSM Ratio (90% CI) of Cmax,[3]; F7 high fat meal / fasted,"91.71 (73.46, 114.49) %"
same,% GLSM Ratio (90% CI) of AUCinf,[3]; F7 moderate fat meal / fasted,"148.23 (130.42, 168.47) %"
same,% GLSM Ratio (90% CI) of AUClast,[3]; F7 moderate fat meal / fasted,"148.20 (130.41, 168.41) %"
same,% GLSM Ratio (90% CI) of Cmax,[3]; F7 moderate fat meal / fasted,"99.04 (79.33, 123.65) %"
same,% GLSM Ratio (90% CI) of AUCinf,[3]; [17],"85.48 (75.33, 97.00) %"
same,% GLSM Ratio (90% CI) of AUClast,[3]; [17],"85.37 (75.24, 96.85) %"
same,% GLSM Ratio (90% CI) of Cmax,[3]; [17],"84.17 (67.59, 104.81) %"
same,Cmax lower for Formulation F7 than for the coadministered reference tablets,[3]; fasted,approximately 16%
same,exposure of Formulation F7 compared with coadministered reference tablets,[3]; fasted,similar
same,"AUCinf, Mean (% CV)",[3]; [9],318.4 (32.8) hr · ng/mL
same,"AUClast, Mean (% CV)",[3]; [9],310.3 (34.9) hr · ng/mL
same,"Cmax, Mean (% CV)",[3]; [9],236.6 (65.1) ng/mL
same,"AUCinf, Mean (% CV)",[3]; [10],293.1 (40.9) hr · ng/mL
same,"AUClast, Mean (% CV)",[3]; [10],290.6 (41.3) hr · ng/mL
same,"Cmax, Mean (% CV)",[3]; [10],251.1 (66.7) ng/mL
same,"AUCinf, Mean (% CV)",[3]; [11],238.3 (45.0) hr · ng/mL
same,"AUClast, Mean (% CV)",[3]; [11],236.7 (45.3) hr · ng/mL
same,"Cmax, Mean (% CV)",[3]; [11],291.9 (55.4) ng/mL
same,BCS class,[4],BCS Class 3
same,pKa,[4],3.9
same,solubility (BCS classification),[4],high equilibrium solubility
same,permeability (BCS classification),[4]; not told,lower apparent permeability
same,pH of maximum solubility,[4],~3
